Laboratory results: the Kinase Knowledgebase extract (Sharma et al. 2016)

What was measured:
[1] = target: EGFR (mouse) (UniProt P00533); settings: nih3t3/neu
[2] = target: EGFR (mouse) (UniProt P00533); settings: nih3t3/her14
[3] = target: EGFR (mouse) (UniProt P00533); settings: nih3t3

Row | Compound | IC50 [1] [µM] | IC50 [2] [µM] | IC50 [3] [µM]
1 | CC(=O)N(C)N=Nc1ccc2ncnc(Nc3cccc(C)c3)c2c1 | 60.6 | 149 | –
2 | Cn1nnc2c(C(N)=O)ncn2c1=O | 210 | 207 | 214
3 | COc1cc2ncnc(Nc3cccc(Cl)c3)c2cc1OC.Cn1nnc2c(C(N)=O)ncn2c1=O | 1.1 | 6.2 | 39.4
4 | COc1cc2ncnc(Nc3cccc(Cl)c3)c2cc1OC | 4 | 9.8 | –
5 | CN(CO)N=Nc1ccc2ncnc(Nc3cccc(Br)c3)c2c1 | 0.09 | 2.1 | –
6 | CNN=Nc1ccc2ncnc(Nc3cccc(Br)c3)c2c1 | 0.09 | 8.8 | –

More lines, now with the values ahead:

Row | IC50 [1] [µM] | IC50 [2] [µM] | IC50 [3] [µM] | Compound
7 | 0.42 | 10.4 | – | Nc1ccc2ncnc(Nc3cccc(Br)c3)c2c1
8 | 16.5 | 28.9 | – | CNN=Nc1ccc2ncnc(Nc3cccc(C)c3)c2c1
9 | 0.21 | 3.4 | – | CC(=O)OCN(C)N=Nc1ccc2ncnc(Nc3cccc(Br)c3)c2c1
